According to PubChem BioAssay (NCI):
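Dose response: 5 concentrations. Exposure: 48 h. Format: 96-well plates. Endpoint: linear interpolation; highest concentration if not reached. Here, GI50 denotes the concentration required for 50% inhibition of growth. TGI: concentration producing complete growth inhibition.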

Key:
Assay in all cases: NCI-60 cell line screen, 48 h
M14 melanoma = tested on: M14 melanoma
NCI-H23 lung = tested on: NCI-H23 lung
SR leukemia = tested on: SR leukemia
HCT-116 colon = tested on: HCT-116 colon
MOLT-4 leukemia = tested on: MOLT-4 leukemia
RPMI-8226 leukemia = tested on: RPMI-8226 leukemia
IGROV1 ovarian = tested on: IGROV1 ovarian
NCI-H226 lung = tested on: NCI-H226 lung
UACC-62 melanoma = tested on: UACC-62 melanoma
786-0 renal = tested on: 786-0 renal
DU-145 prostate = tested on: DU-145 prostate
MDA-MB-435 = tested on: MDA-MB-435
KM12 colon = tested on: KM12 colon
MCF7 breast = tested on: MCF7 breast
HCC-2998 colon = tested on: HCC-2998 colon
SK-MEL-2 melanoma = tested on: SK-MEL-2 melanoma
SF-268 CNS = tested on: SF-268 CNS
NCI-H460 lung = tested on: NCI-H460 lung
A498 renal = tested on: A498 renal
U251 CNS = tested on: U251 CNS
SN12C renal = tested on: SN12C renal
LOX IMVI melanoma = tested on: LOX IMVI melanoma
OVCAR-5 ovarian = tested on: OVCAR-5 ovarian
ACHN renal = tested on: ACHN renal
MALME-3M melanoma = tested on: MALME-3M melanoma
EKVX NSCLC = tested on: EKVX NSCLC
NCI/ADR-RES ovarian = tested on: NCI/ADR-RES ovarian
HS 578T breast = tested on: HS 578T breast
SNB-19 CNS = tested on: SNB-19 CNS
UO-31 renal = tested on: UO-31 renal
PC-3 prostate = tested on: PC-3 prostate
UACC-257 melanoma = tested on: UACC-257 melanoma
T-47D breast = tested on: T-47D breast
BT-549 breast = tested on: BT-549 breast
OVCAR-4 ovarian = tested on: OVCAR-4 ovarian
MDA-MB-231 breast = tested on: MDA-MB-231 breast
SF-539 CNS = tested on: SF-539 CNS
HT29 colon = tested on: HT29 colon
SW-620 colon = tested on: SW-620 colon
SK-MEL-5 melanoma = tested on: SK-MEL-5 melanoma
SK-OV-3 ovarian = tested on: SK-OV-3 ovarian
CAKI-1 renal = tested on: CAKI-1 renal
OVCAR-3 ovarian = tested on: OVCAR-3 ovarian
A549 NSCLC = tested on: A549 NSCLC
K-562 leukemia = tested on: K-562 leukemia
COLO 205 colon = tested on: COLO 205 colon
OVCAR-8 ovarian = tested on: OVCAR-8 ovarian
RXF 393 renal = tested on: RXF 393 renal
HOP-62 NSCLC = tested on: HOP-62 NSCLC
SF-295 CNS = tested on: SF-295 CNS
HOP-92 NSCLC = tested on: HOP-92 NSCLC
TK-10 renal = tested on: TK-10 renal
HCT-15 colon = tested on: HCT-15 colon
SK-MEL-28 melanoma = tested on: SK-MEL-28 melanoma
NCI-H522 lung = tested on: NCI-H522 lung

For `Cn1ccc2c1SSSSS2`, the GI50 (M14 melanoma) was 18 µM, the TGI (M14 melanoma) was 35.6 µM and the GI50 (NCI-H23 lung) was 18.9 µM. It also gave a TGI (NCI-H23 lung) of 36.4 µM, a GI50 (SR leukemia) of 4.6 µM and a TGI (SR leukemia) of 33.8 µM. It also gave a GI50 (HCT-116 colon) of 17.4 µM, a TGI (HCT-116 colon) of 31.1 µM and a GI50 (MOLT-4 leukemia) of 28.5 µM. The TGI (MOLT-4 leukemia) was > 100 µM, the GI50 (RPMI-8226 leukemia) was 20.9 µM and the TGI (RPMI-8226 leukemia) was 52.9 µM. For the same molecule, the GI50 (IGROV1 ovarian) was 35.9 µM, the TGI (IGROV1 ovarian) was > 100 µM and the GI50 (NCI-H226 lung) was 21.5 µM. It also gave a TGI (NCI-H226 lung) of 51 µM, a GI50 (UACC-62 melanoma) of 17.3 µM and a TGI (UACC-62 melanoma) of 34.6 µM. For the same molecule, the GI50 (786-0 renal) was 26.4 µM, the TGI (786-0 renal) was 58.7 µM and the GI50 (DU-145 prostate) was 31.7 µM. For the same molecule, the TGI (DU-145 prostate) was > 100 µM, the GI50 (MDA-MB-435) was 23.7 µM and the TGI (MDA-MB-435) was 53.8 µM. It also gave a GI50 (KM12 colon) of 17 µM, a TGI (KM12 colon) of 35.8 µM and a GI50 (MCF7 breast) of 17.4 µM. The TGI (MCF7 breast) was 43.2 µM, the GI50 (HCC-2998 colon) was 17.1 µM and the TGI (HCC-2998 colon) was 33 µM. For the same molecule, the GI50 (SK-MEL-2 melanoma) was 49.6 µM, the TGI (SK-MEL-2 melanoma) was > 100 µM and the GI50 (SF-268 CNS) was 30.8 µM. For the same molecule, the TGI (SF-268 CNS) was > 100 µM, the GI50 (NCI-H460 lung) was 47.6 µM and the TGI (NCI-H460 lung) was > 100 µM. For the same molecule, the GI50 (A498 renal) was > 100 µM, the TGI (A498 renal) was > 100 µM and the GI50 (U251 CNS) was 40 µM. The TGI (U251 CNS) was > 100 µM, the GI50 (SN12C renal) was 21 µM and the TGI (SN12C renal) was 42 µM. For the same molecule, the GI50 (LOX IMVI melanoma) was 24.8 µM, the TGI (LOX IMVI melanoma) was 71 µM and the GI50 (OVCAR-5 ovarian) was 23 µM. It also gave a TGI (OVCAR-5 ovarian) of 47.1 µM, a GI50 (ACHN renal) of 28.4 µM and a TGI (ACHN renal) of 73.3 µM. It also gave a GI50 (MALME-3M melanoma) of 11.2 µM, a TGI (MALME-3M melanoma) of 41.6 µM and a GI50 (EKVX NSCLC) of 44.5 µM. For the same molecule, the TGI (EKVX NSCLC) was > 100 µM, the GI50 (NCI/ADR-RES ovarian) was 22.8 µM and the TGI (NCI/ADR-RES ovarian) was 54.7 µM. The GI50 (HS 578T breast) was 28.8 µM, the TGI (HS 578T breast) was 71.2 µM and the GI50 (SNB-19 CNS) was 36 µM. For the same molecule, the TGI (SNB-19 CNS) was > 100 µM, the GI50 (UO-31 renal) was 36 µM and the TGI (UO-31 renal) was > 100 µM. For the same molecule, the GI50 (PC-3 prostate) was 25.3 µM, the TGI (PC-3 prostate) was 66.4 µM and the GI50 (UACC-257 melanoma) was 52.3 µM. The TGI (UACC-257 melanoma) was > 100 µM, the GI50 (T-47D breast) was 11.8 µM and the TGI (T-47D breast) was 47.6 µM. For the same molecule, the GI50 (BT-549 breast) was 61.4 µM, the TGI (BT-549 breast) was > 100 µM and the GI50 (OVCAR-4 ovarian) was 21.8 µM. The TGI (OVCAR-4 ovarian) was 56 µM, the GI50 (MDA-MB-231 breast) was 17.9 µM and the TGI (MDA-MB-231 breast) was 45.8 µM. It also gave a GI50 (SF-539 CNS) of 25.6 µM, a TGI (SF-539 CNS) of 69.8 µM and a GI50 (HT29 colon) of 24.1 µM. It also gave a TGI (HT29 colon) of 59.6 µM, a GI50 (SW-620 colon) of 29.1 µM and a TGI (SW-620 colon) of 84.7 µM. The GI50 (SK-MEL-5 melanoma) was 16.5 µM, the TGI (SK-MEL-5 melanoma) was 35.9 µM and the GI50 (SK-OV-3 ovarian) was 37.5 µM. For the same molecule, the TGI (SK-OV-3 ovarian) was > 100 µM, the GI50 (CAKI-1 renal) was 22.4 µM and the TGI (CAKI-1 renal) was 45.7 µM. The GI50 (OVCAR-3 ovarian) was 16.5 µM, the TGI (OVCAR-3 ovarian) was 36.1 µM and the GI50 (A549 NSCLC) was 52.2 µM. For the same molecule, the TGI (A549 NSCLC) was > 100 µM, the GI50 (K-562 leukemia) was 23.2 µM and the TGI (K-562 leukemia) was > 100 µM. For the same molecule, the GI50 (COLO 205 colon) was 15.1 µM, the TGI (COLO 205 colon) was 41.6 µM and the GI50 (OVCAR-8 ovarian) was 96.7 µM. For the same molecule, the TGI (OVCAR-8 ovarian) was > 100 µM, the GI50 (RXF 393 renal) was 28.9 µM and the TGI (RXF 393 renal) was > 100 µM. For the same molecule, the GI50 (HOP-62 NSCLC) was > 100 µM, the TGI (HOP-62 NSCLC) was > 100 µM and the GI50 (SF-295 CNS) was 41.3 µM. For the same molecule, the TGI (SF-295 CNS) was > 100 µM, the GI50 (HOP-92 NSCLC) was 2.88 µM and the TGI (HOP-92 NSCLC) was 7.66 µM. The GI50 (TK-10 renal) was 27.1 µM, the TGI (TK-10 renal) was 68.9 µM and the GI50 (HCT-15 colon) was 33.8 µM. The TGI (HCT-15 colon) was > 100 µM, the GI50 (SK-MEL-28 melanoma) was 21.1 µM and the TGI (SK-MEL-28 melanoma) was 47.5 µM. For the same molecule, the GI50 (NCI-H522 lung) was 32.1 µM and the TGI (NCI-H522 lung) was > 100 µM.
